{
  "source": "patent US12122821B2",
  "about": "“Regulation of glucose metabolism using anti-CGRP antibodies” (H. LUNDBECK A/S, priority 2013, dated 2024)",
  "key": {"HFD rats [1]": {"test_system": "HFD rats", "test": "Fasting blood glucose, plasma insulin, C-peptide and HOMA-IR in HFD rats (Example 2)", "type": "in vivo, rat", "conditions": "vs HFD vehicle", "method": "After 6 weeks of HFD rats were randomized to treatment groups according to their glucose intolerance (AUC calculation during an oral glucose tolerance test (OGTT)) and their HOMA-IR (insulin resistance index).\n(§1) Body weight and food consumption were measured 3 times per week until 10 days of treatment. HOMA-IR was measured on day 10 and 15. A 2-step clamp (5 mU/kg/min and then 15 mU/kg/min insulin) was performed on day 15 or 16. Glucose Turnover (GTO) was assessed using ^3H-glucose tracer infusion during the clamp procedure.\nAb14 (10, 30, 100 mg/kg) and the vehicle were weekly administered via i.v. route (via the caudal vein, under isoflurane anaesthesia), in the morning, on day 1 and day 8 of treatment.\nBefore the start of the treatment (the day of OGTT) and on day 10 of treatment, all rats were fasted from 08:00 am. At 01:30 pm, blood was collected from the from the tip tail (40 μL on EDTA). Blood glucose (using glucometers) and plasma insulin (ELISA method) were measured.\nPlasma insulin and C peptide levels were measured just before the infusion starts (˜T-30 min.), at the end of the steady state of step 1 (T2 h) and step 2 (T3.5 h). For that, blood collection was performed from the tip of the tail (˜100 μL, on EDTA)."}, "[2]": {"test_system": "Zucker diabetic fatty (ZDF) rat", "test": "Pancreas insulin and proinsulin content in ZDF rats (Example 3)", "type": "in vivo", "conditions": "day 28, AB14 60 mg/kg, metformin 200 mg/kg/day, alone or combined, vs vehicle", "method": "After 2 hours of food restriction (from 8:00 am to 10:00 am) 80 rats from the study were anesthetized on day 28 with isoflurane. Blood was collected (˜3000 μL from abdominal vein, on K2-EDTA) for the determination of AB14 plasma concentrations. Plasma (3 aliquots of ˜200 μL) was kept at −80° C. until testing. The pancreas tissue was then excised. Rats were euthanized by incision of the abdominal vein and aorta.\nEach pancreas was divided into 2 parts (longitudinal cut).\nEach pancreas sample was homogenized in an acid buffer, and insulin and proinsulin content were measured using ELISA kits in the following groups: […]"}, "[3]": {"test_system": "Zucker diabetic fatty (ZDF) rat", "test": "Fructosamine and HbA1c in ZDF rats (Example 3)", "type": "in vivo", "conditions": "metformin 200 mg/kg/day, vs vehicle ZDF", "method": "For the groups treated with AB14, the antibody was administered once weekly via the caudal vein (i.v., 5 mL/kg) on days 1, 8, 15, and 22 at two different doses 20 mg/kg/week (groups 3 and 7) or 60 mg/kg/week (groups 4 and 8). All other groups were treated once weekly with vehicle 1 (i.v., 5 mL/kg). The intravenous treatments were performed in the morning on day 1, 8, 15, and 22 while under isoflurane anaesthesia. The volume of administration was individually adapted according to the most recent body weight.\nAll other groups were treated daily with vehicle 2 (p.o., 5 mL/kg) for 28 days. The most recent body weight was used to calculate the average volume of administration in each group.\nFasting blood glucose (glucometers) was measured on days 0, 12, 19, and 26. Fasting plasma insulin, peptide-C (ELISA method), free fatty acids, triglycerides, total cholesterol (colorimetric method), and HDL-cholesterol (phosphotungstate precipitation, colorimetric method) were measured on day 0, and prior to dosing on days 12, 19, and day 26. Non HDL-cholesterol was calculated as total cholesterol—HDL-cholesterol. Fructosamine was measured on days 0, 19 and 28. HbA1c (DCA 2000) was measured on days 0 and 28."}, "HFD rats [4]": {"test_system": "HFD rats", "test": "2-step hyperinsulinemic-euglycemic clamp in HFD rats (Example 2)", "type": "in vivo, rat", "conditions": "metformin 200 mg/kg/day, vs HFD vehicle", "method": "Six-week HFD fed rats were treated for 2 weeks with Ab14, and a 2-step hyperinsulinemic euglycemic clamp was performed to assess insulin sensitivity. A physiological dose of insulin was used during the first step and a pharmacological dose of insulin was used during the second step to assess the effects of […] insulin sensitivity, respectively, under these two conditions.\nas §1\nOn day 15 or 16, the 2-step hyperinsulinemic-euglycemic clamp was performed using ^3H-glucose as a tracer (except in the normal chow group), and 5 mU/kg/min insulin infusion from 02:00 pm (T0) to 04:00 pm (T+2 h), followed by 15 mU/kg/min insulin infusion from 04:00 pm to 05:30 pm (t+3.5 h). A glucose solution was infused in parallel and the infusion rate was adjusted to reach the steady state (100±10 mg/dL). Blood glucose was measured from the tip of the tail using glucometers every 10 minutes. Blood was collected (10 μL) regularly from the tip of the tail during the steady states of each step.\nThe following parameters were assessed: Glucose infusion rate (in all groups); Whole body glucose utilization rate (except in the normal chow group); Hepatic glucose production rate (except in the normal chow group); Whole body glycogen and glycolytic rates (except in the normal chow group)."}, "Normal rats": {"test_system": "Normal rats", "test": "Blood glucose, plasma insulin and HOMA-IR before clamp in normal rats (Example 1)", "type": "in vivo, rat", "conditions": "vs vehicle", "method": "The antibody used in this example consisted of the light and heavy polypeptide chains of SEQ ID NOs 132 and 134.\nBlood glucose (BG) was measured between 07:30 and 08:00 (just before the light off) am from the tip of the tail with glucometer and a blood collection (on EDTA) was performed just after to measure plasma insulin. The table below describes the conditions:\nPlasma samples were kept at −80° C. until insulin measurement (using ELISA method).\nVehicle and Ab14 were administered by i.v. route 48 h before the T0 of clamp procedure (at 02:00 pm two days before the clamp).\nThe rats were fasted 6 hours before the start of the clamp (at ˜8 h, just after the blood collection)."}, "[5]": {"conditions": "day 10, Ab14 10, 30, 100 mg/kg/week, metformin 200 mg/kg/day"}},
  "note": "“Also recorded” adds a separate entry of the source.",
  "data": [
    {"smiles": "CN(C)C(=N)N=C(N)N", "note": "[metformin, reference compound]", "values": [
      {"measurement": "decrease of HOMA-IR", "setting": "HFD rats [1]; [5]", "value": 36, "unit": "%"},
      {"measurement": "decrease of fasting plasma insulin", "setting": "HFD rats [1]; [5]", "value": 37, "unit": "%"},
      {"measurement": "fasting blood glucose", "setting": "HFD rats [1]; [5]", "value": "no effect"},
      {"measurement": "decrease of plasma C-peptide level", "setting": "HFD rats [1]; day 15, metformin 200 mg/kg/day", "value": 13, "unit": "%"},
      {"measurement": "decrease of fasting plasma insulin", "setting": "HFD rats [1]; day 15, metformin 200 mg/kg/day, ns", "value": 11, "unit": "%"},
      {"measurement": "pancreas proinsulin levels", "setting": "[2]", "value": "completely prevented reductions"},
      {"measurement": "pancreatic insulin levels", "setting": "[2]", "value": "significantly increased"},
      {"measurement": "decrease of HbA1c", "setting": "[3]; 28 days, pioglitazone 10 mg/kg/day", "value": 15, "unit": "%"},
      {"measurement": "reduction of fructosamine levels", "setting": "[3]; day 19, pioglitazone 10 mg/kg/day", "value": 6, "unit": "%"},
      {"measurement": "GIR (plateau) during the first clamp step", "setting": "HFD rats [4]; 5 mU/kg/min insulin, Ab14 treated groups (10, 30, 100 mg/kg)", "value": "increasing effect upon GIR that was comparatively less in magnitude; also recorded: no effect"},
      {"measurement": "increase of mean GIR, first step", "setting": "HFD rats [4]; 5 mU/kg/min insulin, ns", "value": 11, "unit": "%"},
      {"measurement": "HGP, second step", "setting": "HFD rats [4]; 15 mU/kg/min insulin", "value": "completely inhibited"},
      {"measurement": "increase of mean GIR, second step", "setting": "HFD rats [4]; 15 mU/kg/min insulin", "value": 27, "unit": "%"},
      {"measurement": "blood glucose in fed conditions", "setting": "Normal rats; fed, 42 h after Ab14 100 mg/kg i.v., 18 h after metformin 500 mg/kg p.o.", "value": "did not affect; also recorded: not affected"},
      {"measurement": "decrease of plasma insulin level in fed condition", "setting": "Normal rats; fed, 42 h after Ab14 100 mg/kg i.v., 18 h after metformin 500 mg/kg p.o., not significant", "value": 18, "unit": "%"},
      {"measurement": "decrease of blood glucose in 6 hours fasting condition, just before clamp", "setting": "Normal rats; metformin 500 mg/kg p.o.", "value": 17, "unit": "%"}
    ]}
  ]
}
